{"source": "paper PMC7731314", "about": "“Tropinone-Derived Alkaloids as Potent Anticancer Agents: Synthesis, Tyrosinase Inhibition, Mechanism of Action, DFT Calculation, and Molecular Docking Studies” (International Journal of Molecular Sciences, 2020)", "key": {"[1]": {"tested_on": "human breast adenocarcinoma (MDA-MB-231) cell line", "test": "MTT cell proliferation assay, MDA-MB-231", "assay_type": "cell-based", "details": "MDA-MB-231, antiproliferative, MTT, 72 h, read-out: IC50 ± SD MDA-MB-231", "excerpt": "(§1) The influence of the tested compounds on the proliferation of melanoma B16F10 and breast MDA-MB-231 cells was estimated with the MTT assay as described previously. The cells counted using an automated cell counter (Countess® II FL, Invitrogen by Thermo Fisher Scientific Inc., Waltham, MA USA) and plated in 96-well plates (Nunc Edge 2F, Thermo Fisher Scientific Inc.) at a density of 0.1 × 10^4 and 0.2 × 10^4 per well, respectively. A total of twenty-four hours later, drugs were applied with final concentration: 5, 0.5, 0.05, and 0.005 μg/mL, and after an additional seventy-two hours MTT staining was performed as follows: twenty microliters of 5 mg/mL MTT solution and was added to each well of 96-well plate incubated for 2 h. Subsequently, the medium was removed and crystals of formazan were solubilized in pure isopropanol. Absorbance readout was conducted immediately using plate reader Multiskan Spectrum at 570 nm (Thermo Electron Corporation, Waltham, MA, USA). The background optical density was measured in the wells filled with culture medium, without the cells. The biological evaluation was performed as three independent experiments. The IC50 values were calculated using ED50plus v 1.0 freeware software and the mean response and standard deviation were calculated using Excel software. All of the chemicals were obtained from Sigma-Aldrich."}, "[2]": {"tested_on": "mouse skin melanoma (B16-F10) cell line", "test": "MTT cell proliferation assay, B16-F10", "assay_type": "cell-based", "details": "B16-F10, antiproliferative, MTT, 72 h, read-out: IC50 ± SD B16-F10", "excerpt": "as §1"}, "RPMI 8226 cells": {"tested_on": "RPMI 8226 cells", "test": "Annexin V-FITC/PI cell death by flow cytometry, RPMI 8226", "assay_type": "cell-based, human", "details": "for IC50: Homo sapiens, read-out: IC50 for apoptosis (concentration inducing apoptosis in 50% of cells)", "experimental": "(§2) The quantitative analysis of compound 3a-induced cell death was performed using an Annexin V-fluorescein isothiocyanate (FITC)/propidium iodide (PI) apoptosis kit (BD Biosciences, BD Pharmingen™, San Jose, CA, USA) as previously described. Briefly, the RPMI 8226 or A549 cells growing on the 6-well plates in the culture medium with 2% FBS were subjected to increasing concentrations of compound 3a (2.5, 5, 10, 20, or 40 μM) for 24 and 48 h. After the treatment, the cells were harvested, centrifuged at 1000 rpm and room temperature (RT) for 5 min, washed twice with PBS, and stained with […] of AnnexinV-FITC and […] of PI. After incubation for 15 min in the dark at room temperature, the cells were immediately analyzed using FACS Calibur. The intensity of fluorescence of AnnexinV-FITC and PI stained cells was determined by acquisition of at least 10,000 events per sample within the rate >60 events/s. The FACS data were analyzed using Cell Quest Pro Version 6.0. for the Macintosh operating system. The data were analyzed to determine the percentage of viable, early apoptotic, late apoptotic, and necrotic cells."}, "A549 cells": {"tested_on": "A549 cells", "test": "Annexin V-FITC/PI cell death by flow cytometry, A549", "assay_type": "cell-based, human", "details": "for IC50: Homo sapiens, read-out: IC50 for apoptosis", "experimental": "as §2"}}, "note": "Like-named read-outs stand apart in the source and are kept apart here."}
{"smiles": "CN1C2CCC1CC(=NNc1nc(-c3ccc(I)cc3)cs1)C2", "note": "[Compound 3a, 4-(4-Iodophenyl)-2-(2-(8-methyl-8-azabicyclo[3.2.1]octan-3-ylidene)hydrazinyl)thiazole]", "values": [{"measurement": "IC50", "setting": "[1]", "result": "2.26 ± 0.38", "unit": "µM"}, {"measurement": "IC50", "setting": "[2]", "result": "1.51 ± 0.14", "unit": "µM"}, {"measurement": "IC50", "setting": "RPMI 8226 cells; RPMI 8226, 24 h", "result": 14.6, "unit": "µM"}, {"measurement": "IC50", "setting": "RPMI 8226 cells; RPMI 8226, 48 h", "result": 7.91, "unit": "µM"}, {"measurement": "Apoptosis (early + late)", "setting": "RPMI 8226 cells; RPMI 8226, 2.5 µM, 24 hours", "result": "19.53 ± 2.64 % of cells ± SD"}, {"measurement": "Necrosis", "setting": "RPMI 8226 cells; RPMI 8226, 2.5 µM, 24 hours", "result": "3.62 ± 0.87 % of cells ± SD"}, {"measurement": "Apoptosis (early + late)", "setting": "RPMI 8226 cells; RPMI 8226, 2.5 µM, 48 hours", "result": "20.93 ± 1.83 % of cells ± SD"}, {"measurement": "Necrosis", "setting": "RPMI 8226 cells; RPMI 8226, 2.5 µM, 48 hours", "result": "5.54 ± 0.44 % of cells ± SD"}, {"measurement": "Apoptosis (early + late)", "setting": "RPMI 8226 cells; RPMI 8226, 5 µM, 24 hours", "result": "22.23 ± 6.01 % of cells ± SD"}, {"measurement": "Necrosis", "setting": "RPMI 8226 cells; RPMI 8226, 5 µM, 24 hours", "result": "6.35 ± 2.57 % of cells ± SD"}, {"measurement": "Apoptosis (early + late)", "setting": "RPMI 8226 cells; RPMI 8226, 5 µM, 48 hours", "result": "31.71 ± 11.36 % of cells ± SD"}, {"measurement": "Necrosis", "setting": "RPMI 8226 cells; RPMI 8226, 5 µM, 48 hours", "result": "7.53 ± 2.61 % of cells ± SD"}, {"measurement": "Apoptosis (early + late)", "setting": "RPMI 8226 cells; RPMI 8226, 10 µM, 24 hours", "result": "39.58 ± 9.33 % of cells ± SD"}, {"measurement": "Necrosis", "setting": "RPMI 8226 cells; RPMI 8226, 10 µM, 24 hours", "result": "9.94 ± 2.73 % of cells ± SD"}, {"measurement": "Apoptosis (early + late)", "setting": "RPMI 8226 cells; RPMI 8226, 10 µM, 48 hours", "result": "58.25 ± 21.57 % of cells ± SD"}, {"measurement": "Necrosis", "setting": "RPMI 8226 cells; RPMI 8226, 10 µM, 48 hours", "result": "11.08 ± 5.38 % of cells ± SD"}, {"measurement": "Apoptosis (early + late)", "setting": "RPMI 8226 cells; RPMI 8226, 20 µM, 24 hours", "result": "60.41 ± 0.99 % of cells ± SD"}, {"measurement": "Necrosis", "setting": "RPMI 8226 cells; RPMI 8226, 20 µM, 24 hours", "result": "18.5 ± 2.38 % of cells ± SD"}, {"measurement": "Apoptosis (early + late)", "setting": "RPMI 8226 cells; RPMI 8226, 20 µM, 48 hours", "result": "76.93 ± 14.34 % of cells ± SD"}, {"measurement": "Necrosis", "setting": "RPMI 8226 cells; RPMI 8226, 20 µM, 48 hours", "result": "20.18 ± 11.99 % of cells ± SD"}, {"measurement": "Apoptosis (early + late)", "setting": "A549 cells; A549, 2.5 µM, 24 hours", "result": "14.30±2.21 % of cells ± SD"}, {"measurement": "Necrosis", "setting": "A549 cells; A549, 2.5 µM, 24 hours", "result": "4.79±1.14 % of cells ± SD"}, {"measurement": "Apoptosis (early + late)", "setting": "A549 cells; A549, 2.5 µM, 48 hours", "result": "18.41±3.95 % of cells ± SD"}, {"measurement": "Necrosis", "setting": "A549 cells; A549, 2.5 µM, 48 hours", "result": "4.11±1.44 % of cells ± SD"}, {"measurement": "Apoptosis (early + late)", "setting": "A549 cells; A549, 5 µM, 24 hours", "result": "14.82±2.42 % of cells ± SD"}, {"measurement": "Necrosis", "setting": "A549 cells; A549, 5 µM, 24 hours", "result": "4.40±1.66 % of cells ± SD"}, {"measurement": "Apoptosis (early + late)", "setting": "A549 cells; A549, 5 µM, 48 hours", "result": "22.48±8.36 % of cells ± SD"}, {"measurement": "Necrosis", "setting": "A549 cells; A549, 5 µM, 48 hours", "result": "4.93±4.26 % of cells ± SD"}, {"measurement": "Apoptosis (early + late)", "setting": "A549 cells; A549, 10 µM, 24 hours", "result": "18.18±2.52 % of cells ± SD"}, {"measurement": "Necrosis", "setting": "A549 cells; A549, 10 µM, 24 hours", "result": "4.87±1.35 % of cells ± SD"}, {"measurement": "Apoptosis (early + late)", "setting": "A549 cells; A549, 10 µM, 48 hours", "result": "27.17±11.71 % of cells ± SD"}, {"measurement": "Necrosis", "setting": "A549 cells; A549, 10 µM, 48 hours", "result": "4.09±2.58 % of cells ± SD"}, {"measurement": "Apoptosis (early + late)", "setting": "A549 cells; A549, 20 µM, 24 hours", "result": "23.43±4.57 % of cells ± SD"}, {"measurement": "Necrosis", "setting": "A549 cells; A549, 20 µM, 24 hours", "result": "4.56±1.90 % of cells ± SD"}, {"measurement": "Apoptosis (early + late)", "setting": "A549 cells; A549, 20 µM, 48 hours", "result": "40.20±9.87 % of cells ± SD"}, {"measurement": "Necrosis", "setting": "A549 cells; A549, 20 µM, 48 hours", "result": "4.87±3.04 % of cells ± SD"}, {"measurement": "Apoptosis (early + late)", "setting": "A549 cells; A549, 40 µM, 24 hours", "result": "73.96±19.94 % of cells ± SD"}, {"measurement": "Necrosis", "setting": "A549 cells; A549, 40 µM, 24 hours", "result": "7.89±1.10 % of cells ± SD"}, {"measurement": "Apoptosis (early + late)", "setting": "A549 cells; A549, 40 µM, 48 hours", "result": "89.43±6.65 % of cells ± SD"}, {"measurement": "Necrosis", "setting": "A549 cells; A549, 40 µM, 48 hours", "result": "8.81±6.51 % of cells ± SD"}, {"measurement": "Necrosis induction", "setting": "A549 cells; A549, up to highest concentration 40 µM", "result": "did not induce necrosis"}, {"measurement": "IC50", "setting": "A549 cells; A549, 24 h", "result": 27.7, "unit": "µM"}, {"measurement": "IC50", "setting": "A549 cells; A549, 48 h", "result": 17.4, "unit": "µM"}]}
